Measurements taken from patent publication US8017611B2, “Pyridine and pyrazine derivatives -083” (AstraZeneca AB, priority 2007, dated 2011).
Marks after values point to notes of the source that are not given here.

Target: T1, recombinant Axl tyrosine kinase (Homo sapiens, UniProt P30530)
T1 construct: encompassing amino acids 473 to 894 of Axl; GST (N); made in house; host or cells: SF126 insect cells
T1 sequence (P30530 473-894): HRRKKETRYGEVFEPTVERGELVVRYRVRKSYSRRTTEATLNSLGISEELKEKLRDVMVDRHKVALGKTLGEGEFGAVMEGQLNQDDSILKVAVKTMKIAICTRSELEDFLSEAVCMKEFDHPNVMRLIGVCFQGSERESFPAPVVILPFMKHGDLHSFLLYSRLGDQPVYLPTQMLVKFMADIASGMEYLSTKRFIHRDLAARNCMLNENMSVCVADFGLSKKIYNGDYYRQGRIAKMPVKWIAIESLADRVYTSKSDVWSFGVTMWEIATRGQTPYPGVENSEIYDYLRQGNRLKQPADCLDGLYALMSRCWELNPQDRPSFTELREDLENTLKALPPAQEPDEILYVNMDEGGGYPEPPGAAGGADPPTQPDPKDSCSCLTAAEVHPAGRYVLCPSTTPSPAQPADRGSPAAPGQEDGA
Assay: In vitro Axl kinase assay (AlphaScreen), Test (a)
Assay type: biochemical
Details: test compound at 1 μM; first value quoted

Structure (SMILES)	% Axl tyrosine kinase inhibition at 1 μM concentration
Nc1ncc(-c2ccc(OC3CCCNC3)cc2)cc1-c1nc2ncccc2o1 (stereo not shown) [Example 43B.30]	98.9%
NCCCOc1ccc(-c2cnc(N)c(-c3nc4ncccc4o3)c2)cc1 [Example 43B.31]	97.1%
CNCCCOc1ccc(-c2cnc(N)c(-c3nc4ncccc4o3)c2)cc1 [Example 43B.32]	98.6%
Nc1ncc(-c2ccc(OC3CCNCC3)cc2)cc1-c1nc2ncccc2o1 [Example 43B.33]	98.1%
NCCCCOc1ccc(-c2cnc(N)c(-c3nc4ncccc4o3)c2)cc1 [Example 43B.34]	95.7%
Nc1ncc(-c2ccc(OCCC3CCNCC3)cc2)cc1-c1nc2ncccc2o1 [Example 43B.35]	95.9%
Nc1ncc(-c2ccc(OCC3CCNCC3)cc2)cc1-c1nc2ncccc2o1 [Example 43B.36]	98.3%
Nc1ncc(-c2ccc(OCCOC3CCNCC3)cc2)cc1-c1nc2ncccc2o1 [Example 43B.37]	97.6%
Nc1ncc(-c2ccc(OCCCN3CCNCC3)cc2)cc1-c1nc2ncccc2o1 [Example 43B.38]	8.1^†††† %
Nc1ncc(-c2ccc(OCCOC3CNC3)cc2)cc1-c1nc2ncccc2o1 [Example 43B.39]	98.2%
Nc1ncc(-c2ccc(OCCC3CCCCN3)cc2)cc1-c1nc2ncccc2o1 (stereo not shown) [Example 43B.40]	97.7%
Nc1ncc(-c2ccc(OCC3CCCNC3)cc2)cc1-c1nc2ncccc2o1 (stereo not shown) [Example 43B.41]	99.0%
CC1CN(CCCOc2ccc(-c3cnc(N)c(-c4nc5ncccc5o4)c3)cc2)CC(C)N1 (stereo not shown) [Example 43B.42]	96.6%
Nc1ncc(-c2ccc(OCCOCCN3CCNCC3)cc2)cc1-c1nc2ncccc2o1 [Example 43B.43]	92.3%
COc1cc(-c2cnc(N)c(-c3nc4ncccc4o3)c2)ccc1OCCN(C)C [Example 43C.3]	99.4%
CCN(CC)CCOc1ccc(-c2cnc(N)c(-c3nc4ncccc4o3)c2)cc1OC [Example 43C.4]	99.8%
COc1cc(-c2cnc(N)c(-c3nc4ncccc4o3)c2)ccc1OCCN1CCCC1 [Example 43C.5]	99.7%
COc1cc(-c2cnc(N)c(-c3nc4ncccc4o3)c2)ccc1OC[C@@H]1CCCN1C [Example 43C.6]	99.8%
COc1cc(-c2cnc(N)c(-c3nc4ncccc4o3)c2)ccc1OCCN1CCN(C)CC1 [Example 43C.7]	99.1%
COc1cc(-c2cnc(N)c(-c3nc4ncccc4o3)c2)ccc1OCCN1CCCCC1 [Example 43C.8]	99.9%
COc1cc(-c2cnc(N)c(-c3nc4ncccc4o3)c2)ccc1OC1CCCN(C)C1 (stereo not shown) [Example 43C.9]	99.9%
COc1cc(-c2cnc(N)c(-c3nc4ncccc4o3)c2)ccc1OCCCN(C)C [Example 43C.10]	98.9%
COc1cc(-c2cnc(N)c(-c3nc4ncccc4o3)c2)ccc1OC1CCN(C)CC1 [Example 43C.11]	98.9%
COc1cc(-c2cnc(N)c(-c3nc4ncccc4o3)c2)ccc1OCC1CCCN(C)C1 (stereo not shown) [Example 43C.12]	99.6%
COc1cc(-c2cnc(N)c(-c3nc4ncccc4o3)c2)ccc1OCCC1CCCCN1C (stereo not shown) [Example 43C.13]	99.9%
COc1cc(-c2cnc(N)c(-c3nc4ncccc4o3)c2)ccc1OCCCN1CCN(C)CC1 [Example 43C.14]	99.3%

Structure (SMILES)	% Axl tyrosine kinase inhibition at 1 μM concentration
COc1cc(-c2cnc(N)c(-c3nc4ncccc4o3)c2)ccc1OCCCN1CCN(S(C)(=O)=O)CC1 [Example 43C.15]	97.2%
COc1cc(-c2cnc(N)c(-c3nc4ncccc4o3)c2)ccc1OCCCN1CCS(=O)(=O)CC1 [Example 43C.16]	98.1%
COc1cc(-c2cnc(N)c(-c3nc4ncccc4o3)c2)ccc1OCCCN1CCOCC1 [Example 43C.17]	93.5%
CCN(CC)CCCOc1ccc(-c2cnc(N)c(-c3nc4ncccc4o3)c2)cc1OC [Example 43C.18]	99.8%
COc1cc(-c2cnc(N)c(-c3nc4ncccc4o3)c2)ccc1OC1CC2CCC(C1)N2C (stereo not shown) [Example 43C.19]	99.7%
COc1cc(-c2cnc(N)c(-c3nc4ncccc4o3)c2)ccc1OCC#CCN1CCS(=O)(=O)CC1 [Example 43C.20]	98.1%
COc1cc(-c2cnc(N)c(-c3nc4ncccc4o3)c2)ccc1OCCN [Example 43C.21]	99.3%
CNCCOc1ccc(-c2cnc(N)c(-c3nc4ncccc4o3)c2)cc1OC [Example 43C.22]	98.2%
COc1cc(-c2cnc(N)c(-c3nc4ncccc4o3)c2)ccc1OC1CCNC1 (stereo not shown) [Example 43C.23]	99.3%
COc1cc(-c2cnc(N)c(-c3nc4ncccc4o3)c2)ccc1OC[C@H]1CCCN1 [Example 43C.24]	99.6%
COc1cc(-c2cnc(N)c(-c3nc4ncccc4o3)c2)ccc1OCCN1CCNCC1 [Example 43C.25]	99.5%
COc1cc(-c2cnc(N)c(-c3nc4ncccc4o3)c2)ccc1OC1CCCNC1 (stereo not shown) [Example 43C.26]	99.6%
COc1cc(-c2cnc(N)c(-c3nc4ncccc4o3)c2)ccc1OCCCN [Example 43C.27]	99.4%
CNCCCOc1ccc(-c2cnc(N)c(-c3nc4ncccc4o3)c2)cc1OC [Example 43C.28]	51.0%
COc1cc(-c2cnc(N)c(-c3nc4ncccc4o3)c2)ccc1OC1CCNCC1 [Example 43C.29]	99.9%
COc1cc(-c2cnc(N)c(-c3nc4ncccc4o3)c2)ccc1OCCCCN [Example 43C.30]	99.0%
COc1cc(-c2cnc(N)c(-c3nc4ncccc4o3)c2)ccc1OCCC1CCNCC1 [Example 43C.31]	99.3%
COc1cc(-c2cnc(N)c(-c3nc4ncccc4o3)c2)ccc1OCCCN1CCNCC1 [Example 43C.32]	99.8%
COc1cc(-c2cnc(N)c(-c3nc4ncccc4o3)c2)ccc1OCC1CCCNC1 (stereo not shown) [Example 43C.33]	99.8%
COc1cc(-c2cnc(N)c(-c3nc4ncccc4o3)c2)ccc1OCCCN1CC(C)NC(C)C1 (stereo not shown) [Example 43C.34]	99.1%
COc1cc(-c2cnc(N)c(-c3nc4ncccc4o3)c2)ccc1OCCOCCN1CCNCC1 [Example 43C.35]	99.2%
COCC1CC(Oc2ccc(-c3cnc(N)c(-c4nc5ncccc5o4)c3)cc2OC)CN1 (stereo not shown) [Example 43C.36]	99.8%
CN[C@H]1COCC[C@H]1Oc1ccc(-c2cnc(N)c(-c3nc4ncccc4o3)c2)cc1OC [Example 43C.37]	99.4%
COc1cc(-c2cnc(N)c(-c3nc4ncccc4o3)c2)ccc1OC1CCCNCC1 (stereo not shown) [Example 43C.38]	99.8%
CN(C)C1CCN(C(=O)c2ccc(-c3cnc(N)c(-c4nc5cccnc5o4)c3)cc2)CC1 [Example 45A.1]	92.9%

Same assay, conditions: test compound at 1 μM; first value quoted; read-out: % Axl tyrosine kinase inhibition at 1 μM concentration

Structure (SMILES)	inhibition at 1 µM
COc1cc(-c2cnc(N)c(-c3nc4cccnc4o3)c2)ccc1OCCN1CCCC1 [Example 43C.1, 5-[3-methoxy-4-(2-pyrrolidin-1-ylethoxy)phenyl]-3-oxazolo[5,4-b]pyridin-2-yl-pyridin-2-amine]	99.4%
COc1cc(-c2cnc(N)c(-c3nc4ncccc4o3)c2)ccc1OCCN1CCOCC1 [Example 43C.2, 5-[3-methoxy-4-(2-morpholinoethoxy)phenyl]-3-oxazolo[4,5-b]pyridin-2-yl-pyridin-2-amine]	97.1%
CN(C)CCNC(=O)c1ccc(-c2cnc(N)c(-c3nc4cccnc4o3)c2)cc1 [Example 44, 4-(6-amino-5-(oxazolo[5,4-b]pyridin-2-yl)pyridin-3-yl)-N-(2-(dimethylamino)ethyl)benzamide]	99.6%

Same assay, conditions: test compound at 30 μM

Structure (SMILES)	% of Axl tyrosine kinase activity inhibited at a concentration of 30 μM
Nc1ncc(-c2ccc(OCCCN3CCNCC3)cc2)cc1-c1nc2ncccc2o1 [Example 43B.38]	^††††the compound disclosed in Example 43B.38 inhibited 95.3% of Axl tyrosine kinase activity at a concentration of 30 μM.
